Laboratory results: the kinase profiling compilation of Christmann-Franck et al. (2016)

Legend:
Assay in all cases: radiometric filter-binding kinase assay, Kinase HotSpot
Details in all cases: compound 0.5 µM; ATP 10 µM
EPHA4 (human) = EPHA4 (human) (UniProt P54764)
DYRK4 (human) = DYRK4 (human) (UniProt Q9NR20)
LRRK2 (human) = LRRK2 (human) (UniProt Q5S007)
MST1R (human) = MST1R (human) (UniProt Q04912)
NEK4 (human) = NEK4 (human) (UniProt P51957)
STK33 (human) = STK33 (human) (UniProt Q9BYT3)
ALK (human) = ALK (human) (UniProt Q9UM73)
PAK1 (human) = PAK1 (human) (UniProt Q13153)
PAK1 (human), sequence (Q13153 whole entry, looked up): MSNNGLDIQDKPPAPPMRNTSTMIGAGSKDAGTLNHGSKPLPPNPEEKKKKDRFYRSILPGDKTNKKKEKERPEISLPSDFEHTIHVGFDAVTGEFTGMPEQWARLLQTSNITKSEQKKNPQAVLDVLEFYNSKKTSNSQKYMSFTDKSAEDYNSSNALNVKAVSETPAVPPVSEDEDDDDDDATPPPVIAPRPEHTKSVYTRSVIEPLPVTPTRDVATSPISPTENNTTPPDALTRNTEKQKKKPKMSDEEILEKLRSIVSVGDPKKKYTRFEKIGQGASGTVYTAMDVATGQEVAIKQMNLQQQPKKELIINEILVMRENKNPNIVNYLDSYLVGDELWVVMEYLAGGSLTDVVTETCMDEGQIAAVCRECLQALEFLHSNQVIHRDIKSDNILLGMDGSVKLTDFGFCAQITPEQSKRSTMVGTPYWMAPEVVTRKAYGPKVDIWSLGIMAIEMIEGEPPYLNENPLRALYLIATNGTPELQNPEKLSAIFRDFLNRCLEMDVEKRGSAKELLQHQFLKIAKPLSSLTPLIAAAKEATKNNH

PHKG1 (human) = PHKG1 (human) (UniProt Q16816)
CHEK2 (human) = CHEK2 (human) (UniProt O96017)
ULK3 (human) = ULK3 (human) (UniProt Q6PHR2)
ULK3 (human), sequence (Q6PHR2 whole entry, looked up): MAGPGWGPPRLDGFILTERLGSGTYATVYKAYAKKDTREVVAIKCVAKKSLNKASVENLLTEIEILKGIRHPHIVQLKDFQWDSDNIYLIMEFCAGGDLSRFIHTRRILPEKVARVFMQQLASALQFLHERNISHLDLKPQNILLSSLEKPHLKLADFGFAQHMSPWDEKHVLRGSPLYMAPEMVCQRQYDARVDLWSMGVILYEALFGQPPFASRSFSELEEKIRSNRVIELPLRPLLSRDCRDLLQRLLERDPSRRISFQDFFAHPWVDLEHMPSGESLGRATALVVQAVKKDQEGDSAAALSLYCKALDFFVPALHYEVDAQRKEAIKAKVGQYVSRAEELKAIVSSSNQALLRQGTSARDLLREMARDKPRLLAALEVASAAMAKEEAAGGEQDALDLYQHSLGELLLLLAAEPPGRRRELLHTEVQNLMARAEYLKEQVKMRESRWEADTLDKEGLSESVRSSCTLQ

IKBKE (human) = IKBKE (human) (UniProt Q14164)
IKBKE (human), sequence (Q14164 whole entry, looked up): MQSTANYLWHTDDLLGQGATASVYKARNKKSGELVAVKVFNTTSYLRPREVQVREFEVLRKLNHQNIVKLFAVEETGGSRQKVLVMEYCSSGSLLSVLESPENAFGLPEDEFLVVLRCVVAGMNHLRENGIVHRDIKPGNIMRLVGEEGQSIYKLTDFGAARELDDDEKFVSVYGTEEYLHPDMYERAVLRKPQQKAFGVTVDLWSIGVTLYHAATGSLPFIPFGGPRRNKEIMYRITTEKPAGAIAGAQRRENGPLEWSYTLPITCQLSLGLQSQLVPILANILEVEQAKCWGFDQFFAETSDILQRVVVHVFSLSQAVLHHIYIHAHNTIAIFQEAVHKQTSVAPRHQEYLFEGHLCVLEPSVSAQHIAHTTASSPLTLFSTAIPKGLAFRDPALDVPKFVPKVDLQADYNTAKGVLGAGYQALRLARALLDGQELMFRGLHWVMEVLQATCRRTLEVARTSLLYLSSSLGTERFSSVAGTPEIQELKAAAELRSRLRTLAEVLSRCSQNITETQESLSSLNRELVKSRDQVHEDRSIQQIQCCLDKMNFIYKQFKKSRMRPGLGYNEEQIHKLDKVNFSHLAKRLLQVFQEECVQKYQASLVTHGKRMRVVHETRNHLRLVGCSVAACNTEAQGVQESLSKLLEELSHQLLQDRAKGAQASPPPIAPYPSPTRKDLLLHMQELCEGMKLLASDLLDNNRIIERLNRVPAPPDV

EPHA6 (human) = EPHA6 (human) (UniProt Q9UF33)
PRKACG (human) = PRKACG (human) (UniProt P22612)
PRKACG (human), sequence (P22612 whole entry, looked up): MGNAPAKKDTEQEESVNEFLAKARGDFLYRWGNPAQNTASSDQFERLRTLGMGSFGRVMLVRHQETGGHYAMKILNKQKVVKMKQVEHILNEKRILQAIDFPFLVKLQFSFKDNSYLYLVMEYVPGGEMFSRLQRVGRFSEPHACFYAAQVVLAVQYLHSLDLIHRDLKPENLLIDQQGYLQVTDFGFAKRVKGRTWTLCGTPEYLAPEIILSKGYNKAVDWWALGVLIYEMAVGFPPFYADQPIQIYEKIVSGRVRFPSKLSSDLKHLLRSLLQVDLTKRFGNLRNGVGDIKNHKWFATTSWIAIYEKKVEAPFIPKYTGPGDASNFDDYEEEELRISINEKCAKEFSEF

HCK (human) = HCK (human) (UniProt P08631)
CAMKK2 (human) = CAMKK2 (human) (UniProt Q96RR4)
CDK6 CCND3 (human) = CDK6 CCND3 (human) (UniProt P30281+Q00534)
AXL (human) = AXL (human) (UniProt P30530)
MAPKAPK3 (human) = MAPKAPK3 (human) (UniProt Q16644)
SIK2 (human) = SIK2 (human) (UniProt Q9H0K1)
CDK6 CCND1 (human) = CDK6 CCND1 (human) (UniProt Q00534+P24385)
MYO3B (human) = MYO3B (human) (UniProt Q8WXR4)
EGFR (human) = EGFR (human) (UniProt P00533)
MYLK2 (human) = MYLK2 (human) (UniProt Q9H1R3)
DMPK (human) = DMPK (human) (UniProt Q09013)
TAOK2 (human) = TAOK2 (human) (UniProt Q9UL54)
PLK2 (human) = PLK2 (human) (UniProt Q9NYY3)
PLK2 (human), sequence (Q9NYY3 whole entry, looked up): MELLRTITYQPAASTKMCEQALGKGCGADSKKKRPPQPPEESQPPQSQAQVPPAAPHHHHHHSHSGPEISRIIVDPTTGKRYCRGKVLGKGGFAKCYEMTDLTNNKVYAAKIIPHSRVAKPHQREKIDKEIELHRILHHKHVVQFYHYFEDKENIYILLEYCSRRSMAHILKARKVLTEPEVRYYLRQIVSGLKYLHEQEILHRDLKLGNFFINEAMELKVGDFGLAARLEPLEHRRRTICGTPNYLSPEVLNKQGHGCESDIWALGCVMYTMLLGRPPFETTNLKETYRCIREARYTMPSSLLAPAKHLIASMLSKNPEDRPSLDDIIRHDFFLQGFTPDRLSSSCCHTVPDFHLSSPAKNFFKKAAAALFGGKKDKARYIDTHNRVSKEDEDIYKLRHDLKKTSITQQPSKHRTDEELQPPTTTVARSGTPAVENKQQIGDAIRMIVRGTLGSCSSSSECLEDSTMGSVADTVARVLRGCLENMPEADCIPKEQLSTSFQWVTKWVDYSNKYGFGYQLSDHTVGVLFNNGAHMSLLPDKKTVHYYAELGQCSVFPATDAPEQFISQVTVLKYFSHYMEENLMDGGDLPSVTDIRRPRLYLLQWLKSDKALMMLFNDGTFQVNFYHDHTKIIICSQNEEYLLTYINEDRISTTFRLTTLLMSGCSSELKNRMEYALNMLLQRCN

ACVR1B (human) = ACVR1B (human) (UniProt P36896)
STK38 (human) = STK38 (human) (UniProt Q15208)
STK38 (human), sequence (Q15208 whole entry, looked up): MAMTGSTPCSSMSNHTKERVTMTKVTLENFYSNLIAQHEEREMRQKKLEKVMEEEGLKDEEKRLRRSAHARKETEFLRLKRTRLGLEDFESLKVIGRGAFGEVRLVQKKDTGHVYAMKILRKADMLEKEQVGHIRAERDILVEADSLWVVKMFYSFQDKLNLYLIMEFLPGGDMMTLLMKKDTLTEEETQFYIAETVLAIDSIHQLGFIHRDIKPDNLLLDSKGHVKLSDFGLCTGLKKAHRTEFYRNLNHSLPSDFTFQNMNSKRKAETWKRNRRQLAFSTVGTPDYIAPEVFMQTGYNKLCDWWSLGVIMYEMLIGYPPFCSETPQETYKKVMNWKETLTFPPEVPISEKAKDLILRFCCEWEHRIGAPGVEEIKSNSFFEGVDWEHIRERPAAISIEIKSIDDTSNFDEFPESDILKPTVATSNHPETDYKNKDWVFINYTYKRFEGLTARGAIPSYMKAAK

SRPK3 (human) = SRPK3 (human) (UniProt Q9UPE1)
DYRK1B (human) = DYRK1B (human) (UniProt Q9Y463)
DYRK1B (human), sequence (Q9Y463 whole entry, looked up): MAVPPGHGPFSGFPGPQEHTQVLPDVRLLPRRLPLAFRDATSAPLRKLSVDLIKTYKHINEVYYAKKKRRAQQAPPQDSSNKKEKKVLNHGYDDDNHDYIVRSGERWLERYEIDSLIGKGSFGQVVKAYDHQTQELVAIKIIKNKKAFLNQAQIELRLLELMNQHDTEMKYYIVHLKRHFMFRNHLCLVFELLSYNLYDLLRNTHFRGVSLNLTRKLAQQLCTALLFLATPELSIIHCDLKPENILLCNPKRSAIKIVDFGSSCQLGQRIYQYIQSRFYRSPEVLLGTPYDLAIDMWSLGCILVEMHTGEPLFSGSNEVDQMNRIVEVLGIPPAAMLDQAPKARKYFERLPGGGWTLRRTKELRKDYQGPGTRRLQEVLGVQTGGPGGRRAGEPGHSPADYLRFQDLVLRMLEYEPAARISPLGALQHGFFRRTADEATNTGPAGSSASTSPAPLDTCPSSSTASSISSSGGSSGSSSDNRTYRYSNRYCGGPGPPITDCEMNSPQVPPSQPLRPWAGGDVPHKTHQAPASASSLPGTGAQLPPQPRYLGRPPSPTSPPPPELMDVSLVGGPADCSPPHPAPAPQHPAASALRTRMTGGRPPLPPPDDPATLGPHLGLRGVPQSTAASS

PAK7 (human) = PAK7 (human) (UniProt Q9P286)
TXK (human) = TXK (human) (UniProt P42681)
CAMK1G (human) = CAMK1G (human) (UniProt Q96NX5)
BRAF (human) = BRAF (human) (UniProt P15056)
TLK2 (human) = TLK2 (human) (UniProt Q86UE8)
AURKB (human) = AURKB (human) (UniProt Q96GD4)
PNCK (human) = PNCK (human) (UniProt Q6P2M8)
CLK2 (human) = CLK2 (human) (UniProt P49760)
CLK2 (human), sequence (P49760 whole entry, looked up): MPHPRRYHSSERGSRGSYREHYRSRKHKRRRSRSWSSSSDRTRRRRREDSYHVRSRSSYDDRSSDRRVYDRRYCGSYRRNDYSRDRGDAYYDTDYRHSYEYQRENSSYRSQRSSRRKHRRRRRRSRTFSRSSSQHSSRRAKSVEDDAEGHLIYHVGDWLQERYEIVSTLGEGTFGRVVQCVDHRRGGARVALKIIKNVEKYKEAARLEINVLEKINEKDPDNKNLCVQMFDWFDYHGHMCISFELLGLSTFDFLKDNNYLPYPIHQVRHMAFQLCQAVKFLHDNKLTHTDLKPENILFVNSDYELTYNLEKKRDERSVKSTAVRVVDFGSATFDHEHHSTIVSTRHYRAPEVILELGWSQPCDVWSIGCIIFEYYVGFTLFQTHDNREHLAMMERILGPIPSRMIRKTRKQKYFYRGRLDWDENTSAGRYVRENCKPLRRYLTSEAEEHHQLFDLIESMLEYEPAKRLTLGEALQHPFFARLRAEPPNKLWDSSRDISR

PLK3 (human) = PLK3 (human) (UniProt Q9H4B4)
LCK (human) = LCK (human) (UniProt P06239)
LCK (human), sequence (P06239 whole entry, looked up): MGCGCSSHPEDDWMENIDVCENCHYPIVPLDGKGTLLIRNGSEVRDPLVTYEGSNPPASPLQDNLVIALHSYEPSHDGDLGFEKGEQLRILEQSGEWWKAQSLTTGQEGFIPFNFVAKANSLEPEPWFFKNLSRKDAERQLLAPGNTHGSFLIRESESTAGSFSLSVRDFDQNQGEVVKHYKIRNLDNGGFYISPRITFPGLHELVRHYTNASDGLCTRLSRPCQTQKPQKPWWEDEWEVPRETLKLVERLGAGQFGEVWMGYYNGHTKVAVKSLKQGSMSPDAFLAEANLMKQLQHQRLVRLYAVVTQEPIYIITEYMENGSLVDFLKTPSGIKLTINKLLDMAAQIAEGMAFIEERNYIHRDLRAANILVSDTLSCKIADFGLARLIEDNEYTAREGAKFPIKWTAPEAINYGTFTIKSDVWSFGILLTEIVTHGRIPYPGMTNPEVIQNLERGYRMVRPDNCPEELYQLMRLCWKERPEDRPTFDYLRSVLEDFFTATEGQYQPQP

PDPK1 (human) = PDPK1 (human) (UniProt O15530)

FC(F)(F)c1ccc(/C=C/c2nc(COc3ccc(CCCCn4ccnn4)cc3)co2)cc1
residual activity (EPHA4 (human)): 98.8%
residual activity (DYRK4 (human)): 101%
residual activity (LRRK2 (human)): 94.8%
residual activity (MST1R (human)): 104%
residual activity (NEK4 (human)): 90%
residual activity (STK33 (human)): 93.7%
residual activity (ALK (human)): 108%
residual activity (PAK1 (human)): 104%
residual activity (PHKG1 (human)): 92.9%
residual activity (CHEK2 (human)): 103%
residual activity (ULK3 (human)): 99.5%
residual activity (IKBKE (human)): 94.8%
residual activity (EPHA6 (human)): 99.3%
residual activity (PRKACG (human)): 105%
residual activity (HCK (human)): 93.9%
residual activity (CAMKK2 (human)): 101%
residual activity (CDK6 CCND3 (human)): 90%
residual activity (AXL (human)): 101%
residual activity (MAPKAPK3 (human)): 98.9%
residual activity (SIK2 (human)): 103%
residual activity (CDK6 CCND1 (human)): 95.4%
residual activity (MYO3B (human)): 93.7%
residual activity (EGFR (human)): 97.7%
residual activity (MYLK2 (human)): 101%
residual activity (DMPK (human)): 101%
residual activity (TAOK2 (human)): 105%
residual activity (PLK2 (human)): 99.7%
residual activity (ACVR1B (human)): 92.8%
residual activity (STK38 (human)): 102%
residual activity (SRPK3 (human)): 104%
residual activity (DYRK1B (human)): 96.7%
residual activity (PAK7 (human)): 89.4%
residual activity (TXK (human)): 101%
residual activity (CAMK1G (human)): 95%
residual activity (BRAF (human)): 94.3%
residual activity (TLK2 (human)): 98.6%
residual activity (AURKB (human)): 98%
residual activity (PNCK (human)): 96.6%
residual activity (CLK2 (human)): 89.6%
residual activity (PLK3 (human)): 107%
residual activity (LCK (human)): 92.1%
residual activity (PDPK1 (human)): 104%

Cn1cc(/C=C2\C(=O)Nc3ccc(S(N)(=O)=O)cc32)c2ccccc21
residual activity (EPHA4 (human)): 80.5%
residual activity (DYRK4 (human)): 73.7%
residual activity (LRRK2 (human)): 9.76%
residual activity (MST1R (human)): 100%
residual activity (NEK4 (human)): 81%
residual activity (STK33 (human)): 46.3%
residual activity (ALK (human)): 72.1%
residual activity (PAK1 (human)): 90.8%
residual activity (PHKG1 (human)): 20.6%
residual activity (CHEK2 (human)): 1.3%
residual activity (ULK3 (human)): 15.8%
residual activity (IKBKE (human)): 21.9%
residual activity (EPHA6 (human)): 30.2%
residual activity (PRKACG (human)): 101%
residual activity (HCK (human)): 50%
residual activity (CAMKK2 (human)): 34.4%
residual activity (CDK6 CCND3 (human)): 81.4%
residual activity (AXL (human)): 49.2%
residual activity (MAPKAPK3 (human)): 91.5%
residual activity (SIK2 (human)): 81.4%
residual activity (CDK6 CCND1 (human)): 82.4%
residual activity (MYO3B (human)): 74.6%
residual activity (EGFR (human)): 77.5%
residual activity (MYLK2 (human)): 53.6%
residual activity (DMPK (human)): 106%
residual activity (TAOK2 (human)): 86.4%
residual activity (PLK2 (human)): 104%
residual activity (ACVR1B (human)): 98.4%
residual activity (STK38 (human)): 53.1%
residual activity (SRPK3 (human)): 88.5%
residual activity (DYRK1B (human)): 104%
residual activity (PAK7 (human)): 75.3%
residual activity (TXK (human)): 51.3%
residual activity (CAMK1G (human)): 89.2%
residual activity (TLK2 (human)): 63.2%
residual activity (AURKB (human)): 10.5%
residual activity (PNCK (human)): 58.1%
residual activity (CLK2 (human)): 38.1%
residual activity (PLK3 (human)): 99%
residual activity (LCK (human)): 57.6%
residual activity (PDPK1 (human)): 95%

COc1cccc(-c2cc(=O)c3ccccc3o2)c1N
residual activity (EPHA4 (human)): 98%
residual activity (DYRK4 (human)): 108%
residual activity (LRRK2 (human)): 101%
residual activity (MST1R (human)): 93.4%
residual activity (NEK4 (human)): 93.4%
residual activity (STK33 (human)): 98.2%
residual activity (ALK (human)): 84.1%
residual activity (PAK1 (human)): 97.5%
residual activity (PHKG1 (human)): 92.9%
residual activity (CHEK2 (human)): 98.8%
residual activity (ULK3 (human)): 94.6%
residual activity (IKBKE (human)): 95.1%
residual activity (EPHA6 (human)): 81.2%
residual activity (PRKACG (human)): 96%
residual activity (HCK (human)): 91.6%
residual activity (CAMKK2 (human)): 92.5%
residual activity (CDK6 CCND3 (human)): 99.3%
residual activity (AXL (human)): 127%
residual activity (MAPKAPK3 (human)): 88.1%
residual activity (SIK2 (human)): 102%
residual activity (CDK6 CCND1 (human)): 95.5%
residual activity (MYO3B (human)): 97.8%
residual activity (EGFR (human)): 81.2%
residual activity (MYLK2 (human)): 101%
residual activity (DMPK (human)): 97.1%
residual activity (TAOK2 (human)): 96%
residual activity (PLK2 (human)): 92.5%
residual activity (ACVR1B (human)): 92.5%
residual activity (STK38 (human)): 97.4%
residual activity (SRPK3 (human)): 91%
residual activity (DYRK1B (human)): 88.1%
residual activity (PAK7 (human)): 99.7%
residual activity (TXK (human)): 94.6%
residual activity (CAMK1G (human)): 96.5%
residual activity (BRAF (human)): 93.6%
residual activity (TLK2 (human)): 84.8%
residual activity (AURKB (human)): 102%
residual activity (PNCK (human)): 96.8%
residual activity (CLK2 (human)): 103%
residual activity (PLK3 (human)): 98%
residual activity (LCK (human)): 99%
residual activity (PDPK1 (human)): 98.3%

CCc1nc(-c2ccc(OC)cc2)[nH]c1-c1ccncc1
residual activity (EPHA4 (human)): 105%
residual activity (DYRK4 (human)): 100%
residual activity (LRRK2 (human)): 96.7%
residual activity (MST1R (human)): 101%
residual activity (NEK4 (human)): 95.2%
residual activity (STK33 (human)): 101%
residual activity (ALK (human)): 106%
residual activity (PAK1 (human)): 99.3%
residual activity (PHKG1 (human)): 97%
residual activity (CHEK2 (human)): 102%
residual activity (ULK3 (human)): 83.4%
residual activity (IKBKE (human)): 99.8%
residual activity (EPHA6 (human)): 104%
residual activity (PRKACG (human)): 103%
residual activity (HCK (human)): 95.1%
residual activity (CAMKK2 (human)): 109%
residual activity (CDK6 CCND3 (human)): 101%
residual activity (AXL (human)): 99.9%
residual activity (MAPKAPK3 (human)): 102%
residual activity (SIK2 (human)): 88.3%
residual activity (CDK6 CCND1 (human)): 101%
residual activity (MYO3B (human)): 107%
residual activity (EGFR (human)): 103%
residual activity (MYLK2 (human)): 101%
residual activity (DMPK (human)): 102%
residual activity (TAOK2 (human)): 98.2%
residual activity (PLK2 (human)): 101%
residual activity (ACVR1B (human)): 86.5%
residual activity (STK38 (human)): 102%
residual activity (SRPK3 (human)): 102%
residual activity (DYRK1B (human)): 106%
residual activity (PAK7 (human)): 101%
residual activity (TXK (human)): 100%
residual activity (CAMK1G (human)): 98%
residual activity (BRAF (human)): 102%
residual activity (TLK2 (human)): 102%
residual activity (AURKB (human)): 101%
residual activity (PNCK (human)): 102%
residual activity (CLK2 (human)): 106%
residual activity (PLK3 (human)): 96.9%
residual activity (PDPK1 (human)): 96%
